The values below come from ChEMBL document CHEMBL1130105 (J Med Chem, 1997).

Each structure is given as a SMILES string.

For one experiment, the target named is T1, Cholecystokinin receptor type A (Rattus norvegicus, UniProt P30551).
T1 sequence (P30551 whole entry): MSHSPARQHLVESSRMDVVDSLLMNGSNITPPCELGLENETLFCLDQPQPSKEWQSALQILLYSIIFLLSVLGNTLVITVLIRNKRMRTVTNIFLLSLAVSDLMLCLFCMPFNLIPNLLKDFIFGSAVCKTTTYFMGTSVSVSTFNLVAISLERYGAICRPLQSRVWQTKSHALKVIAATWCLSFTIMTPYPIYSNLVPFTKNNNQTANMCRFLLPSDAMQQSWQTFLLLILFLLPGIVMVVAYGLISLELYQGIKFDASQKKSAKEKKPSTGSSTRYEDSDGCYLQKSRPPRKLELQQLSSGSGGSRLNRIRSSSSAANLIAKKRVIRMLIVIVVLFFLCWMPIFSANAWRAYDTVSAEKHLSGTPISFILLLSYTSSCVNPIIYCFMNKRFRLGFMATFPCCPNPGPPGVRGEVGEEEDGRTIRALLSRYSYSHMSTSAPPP
The experiment is described as follows: Inhibition of ligand binding to Cholecystokinin type A receptor from rat pancreatic tissue.
`CCCN1C(=O)[C@H](NC(=O)Nc2cccc(C)c2)N=C([C@H]2CCCCN2)c2ccccc21`: the IC50 (as a rule, the midpoint of a concentration-inhibition curve) came out at 3 µM.

`CCCN1C(=O)[C@H](NC(=O)Nc2cccc(C)c2)N=C([C@H]2CCCCN2C)c2ccccc21` registered an IC50 of 2.09 µM.

In the case of `CCCN1C(=O)[C@H](NC(=O)Nc2cccc(C)c2)N=C([C@@H]2CCCCN2)c2ccccc21`, the IC50 turned out to be 3 µM.

Turning to `CCCN1C(=O)[C@H](NC(=O)Nc2cccc(C)c2)N=C([C@H]2CC(C)(C)CCN2)c2ccccc21`, the IC50 worked out at 3.09 µM.

Turning to `CCN(CC)C(=O)CN1C(=O)[C@H](NC(=O)Nc2cccc(C)c2)N=C(c2cccc[n+]2C)c2ccccc21`, the IC50 stood at 1.75 µM.

Consider `Cc1cccc(NC(=O)N[C@@H]2N=C([C@H]3CCC(C)(C)CCN3)c3ccccc3N(C)C2=O)c1`, for which the IC50 worked out at 1.39 µM.

For the compound `CCCN1C(=O)[C@H](NC(=O)Nc2ccc3c(c2)CCC3)N=C([C@H]2CC(C)(C)CCN2)c2ccccc21`, the IC50 came out at 4.02 µM.

The compound `CN1C(=O)[C@H](NC(=O)Nc2ccc3c(c2)CCC3)N=C([C@H]2CCC(C)(C)CCN2)c2ccccc21` registered an IC50 of 6.49 µM.

Compound `CCCN1C(=O)[C@H](NC(=O)Nc2cccc(C)c2)N=C([C@H]2CCC(C)(C)CCN2C)c2ccccc21` returned an IC50 of 3.54 µM.

The compound `CCCN1C(=O)[C@H](NC(=O)Nc2cccc(C)c2)N=C([C@H]2CCC(C)(C)CCN2)c2ccccc21` yielded an IC50 of 1.51 µM.

For the next experiment, the target named is Gastrin/cholecystokinin type B receptor (Cavia porcellus). In words: Inhibition of ligand binding to Cholecystokinin type B receptor from guinea pig cortical membrane.
Turning to `CCN(CC)C(=O)CN1C(=O)C(NC(=O)Nc2cccc(C)c2)N=C(c2ccccn2)c2ccccc21` (configuration not stated), the IC50 came out at 0.00056 µM.

With `Cc1cccc(NC(=O)NC2N=C(c3ccccn3)c3ccccc3N(C)C2=O)c1` (configuration not stated), the IC50 was found to be 0.066 µM.
